Test results reported in ChEMBL document CHEMBL3044836, “Synthesis, antimicrobial and cytotoxic activities of novel 4-trifluoromethyl-(1,2,3)-thiadiazolo-5-carboxylic acid hydrazide Schiffs bases” (Med Chem Res, 2013).
In brackets after ≈: the same amount, converted by molar mass.

Tests used:
MCF7 [1] = assay: Cytotoxicity against Homo sapiens (human) MCF7 cells assessed as cell viability at 10 uM after 48 hr by MTT assay relative to control; assay type: functional; conditions: MCF7, 48 h, read-out: Activity
Saccharomyces cerevisiae [2] = assay: Antifungal activity against Saccharomyces cerevisiae MTCC 36 assessed as growth inhibition at 100 ug/ml after 48 hr by agar cup diffusion method; assay type: functional; conditions: MTCC 36, 48 h, read-out: DIZ
Klebsiella pneumoniae = assay: Antibacterial activity against Klebsiella pneumoniae assessed as growth inhibition by broth dilution method; assay type: functional
MCF7 [3] = assay: Cytotoxicity against Homo sapiens (human) MCF7 cells assessed as cell viability after 48 hr by MTT assay; assay type: functional, cell-based; conditions: MCF7, 48 h
MDA-MB-231 [4] = assay: Cytotoxicity against Homo sapiens (human) MDA-MB-231 cells assessed as cell viability at 10 uM after 48 hr by MTT assay relative to control; assay type: functional; conditions: MDA-MB-231, 48 h, read-out: Activity
MDA-MB-231 [5] = assay: Cytotoxicity against Homo sapiens (human) MDA-MB-231 cells assessed as cell viability at 1 uM after 48 hr by MTT assay relative to control; assay type: functional; conditions: MDA-MB-231, 48 h, read-out: Activity
Candida albicans [6] = assay: Antifungal activity against Candida albicans MTCC 227 assessed as growth inhibition at 150 ug/ml after 48 hr by agar cup diffusion method; assay type: functional; conditions: MTCC 227, 48 h, read-out: DIZ
MDA-MB-231 [7] = assay: Cytotoxicity against Homo sapiens (human) MDA-MB-231 cells assessed as cell viability after 48 hr by MTT assay; assay type: functional, cell-based; conditions: MDA-MB-231, 48 h
Aspergillus niger [8] = assay: Antifungal activity against Aspergillus niger MTCC 1344 assessed as growth inhibition at 150 ug/ml after 48 hr by agar cup diffusion method; assay type: functional; conditions: MTCC 1344, 48 h, read-out: DIZ
Aspergillus niger [9] = assay: Antifungal activity against Aspergillus niger MTCC 1344 assessed as growth inhibition at 100 ug/ml after 48 hr by agar cup diffusion method; assay type: functional; conditions: MTCC 1344, 48 h, read-out: DIZ
Staphylococcus aureus = assay: Antibacterial activity against Staphylococcus aureus MTCC 96 assessed as growth inhibition by broth dilution method; assay type: functional
[10] = tested on: Staphylococcus epidermidis; assay: Antibacterial activity against Staphylococcus epidermidis MTCC 435 assessed as growth inhibition by broth dilution method; assay type: functional; conditions: read-out: MIC
Pseudomonas aeruginosa = assay: Antibacterial activity against Pseudomonas aeruginosa MTCC 741 assessed as growth inhibition by broth dilution method; assay type: functional; conditions: read-out: MIC
Saccharomyces cerevisiae [11] = assay: Antifungal activity against Saccharomyces cerevisiae MTCC 36 assessed as growth inhibition at 150 ug/ml after 48 hr by agar cup diffusion method; assay type: functional; conditions: MTCC 36, 48 h, read-out: DIZ
Candida albicans [12] = assay: Antifungal activity against Candida albicans MTCC 227 assessed as growth inhibition at 100 ug/ml after 48 hr by agar cup diffusion method; assay type: functional; conditions: MTCC 227, 48 h, read-out: DIZ
Bacillus subtilis = assay: Antibacterial activity against Bacillus subtilis MTCC 441 assessed as growth inhibition by broth dilution method; assay type: functional; conditions: read-out: MIC
Escherichia coli = assay: Antibacterial activity against Escherichia coli MTCC 443 assessed as growth inhibition by broth dilution method; assay type: functional; conditions: read-out: MIC
Diutina rugosa [13] = assay: Antifungal activity against Candida rugosa NCIM 3462 assessed as growth inhibition at 150 ug/ml after 48 hr by agar cup diffusion method; assay type: functional; conditions: NCIM 3462, 48 h, read-out: DIZ
Diutina rugosa [14] = assay: Antifungal activity against Candida rugosa NCIM 3462 assessed as growth inhibition at 100 ug/ml after 48 hr by agar cup diffusion method; assay type: functional; conditions: NCIM 3462, 48 h, read-out: DIZ
Aspergillus niger [15] = assay: Antifungal activity against Aspergillus niger MTCC 1344 assessed as growth inhibition at 50 ug/ml after 48 hr by agar cup diffusion method; assay type: functional; conditions: MTCC 1344, 48 h, read-out: DIZ
Diutina rugosa [16] = assay: Antifungal activity against Candida rugosa NCIM 3462 assessed as growth inhibition at 50 ug/ml after 48 hr by agar cup diffusion method; assay type: functional; conditions: NCIM 3462, 48 h, read-out: DIZ
Saccharomyces cerevisiae [17] = assay: Antifungal activity against Saccharomyces cerevisiae MTCC 36 assessed as growth inhibition at 50 ug/ml after 48 hr by agar cup diffusion method; assay type: functional; conditions: MTCC 36, 48 h, read-out: DIZ
Candida albicans [18] = assay: Antifungal activity against Candida albicans MTCC 227 assessed as growth inhibition at 50 ug/ml after 48 hr by agar cup diffusion method; assay type: functional; conditions: MTCC 227, 48 h, read-out: DIZ
MCF7 [19] = assay: Cytotoxicity against Homo sapiens (human) MCF7 cells assessed as cell viability at 5 uM after 48 hr by MTT assay relative to control; assay type: functional; conditions: MCF7, 48 h, read-out: Activity
MDA-MB-231 [20] = assay: Cytotoxicity against Homo sapiens (human) MDA-MB-231 cells assessed as cell viability at 5 uM after 48 hr by MTT assay relative to control; assay type: functional; conditions: MDA-MB-231, 48 h, read-out: Activity

SMILES | viability at 10 µM (MCF7 [1]) [%] | zone of inhibition at 100 µg/mL (Saccharomyces cerevisiae [2]) [mm] | MIC (Klebsiella pneumoniae; read-out: MIC) [µg/mL] | viability at 10 µM (MDA-MB-231 [4]) [%] | zone of inhibition at 150 µg/mL (Candida albicans [6]) [mm] | zone of inhibition at 150 µg/mL (Aspergillus niger [8]) [mm] | zone of inhibition at 100 µg/mL (Aspergillus niger [9]) [mm] | MIC [10] [µg/mL] | MIC (Pseudomonas aeruginosa) [µg/mL] | zone of inhibition at 150 µg/mL (Saccharomyces cerevisiae [11]) [mm] | zone of inhibition at 100 µg/mL (Candida albicans [12]) [mm] | MIC (Bacillus subtilis) [µg/mL] | MIC (Escherichia coli) [µg/mL] | zone of inhibition at 150 µg/mL (Diutina rugosa [13]) [mm] | zone of inhibition at 100 µg/mL (Diutina rugosa [14]) [mm] | MIC (Staphylococcus aureus) [µg/mL] | also measured
C/C(=N\NC(=O)c1snnc1C(F)(F)F)c1ccccn1 | 63.6 | 0 | 150 (≈ 476 µM) | 25.4 | 0 | 0 | 0 | 150 (≈ 476 µM) | 150 (≈ 476 µM) | 0 | 0 | 150 (≈ 476 µM) | 150 (≈ 476 µM) | 0 | 0 |  | IC50 (MCF7 [3]): 6.01 µg/mL (≈ 19.1 µM); viability at 1 µM (MDA-MB-231 [5]): 41.7%; IC50 (MDA-MB-231 [7]): 2.74 µg/mL (≈ 8.69 µM); MIC (Staphylococcus aureus; read-out: MIC): 150 µg/mL (≈ 476 µM)
O=C(N/N=C/c1ccccc1)c1snnc1C(F)(F)F | 102 | 0 |  | 102 | 12 | 0 | 0 | 150 (≈ 500 µM) | 150 (≈ 500 µM) | 0 | 10 | 150 (≈ 500 µM) | 150 (≈ 500 µM) | 6 | 0 | > 150 | MIC (Klebsiella pneumoniae): > 150 µg/mL
O=C(N/N=C/c1ccc(F)cc1)c1snnc1C(F)(F)F | 99.5 | 0 | 150 (≈ 471 µM) | 102 | 0 | 0 | 0 | 150 (≈ 471 µM) | 150 (≈ 471 µM) | 0 | 0 | 150 (≈ 471 µM) | 150 (≈ 471 µM) | 0 | 0 | > 150 | 
C[C@@H]1[C@H](O)[C@@H](C)/C=C/C=C/C=C/C=C/C=C/C=C/C=C/[C@H](O[C@@H]2O[C@H](C)[C@@H](O)[C@H](N)[C@@H]2O)C[C@@H]2O[C@](O)(C[C@@H](O)C[C@@H](O)[C@H](O)CC[C@@H](O)C[C@@H](O)CC(=O)O[C@H]1C)C[C@H](O)[C@H]2C(=O)O [AMPHOTERICIN B] |  |  |  |  |  |  |  |  |  |  |  |  |  |  |  |  | zone of inhibition at 50 µg/mL (Aspergillus niger [15]): 25 mm; zone of inhibition at 50 µg/mL (Diutina rugosa [16]): 21 mm; zone of inhibition at 50 µg/mL (Saccharomyces cerevisiae [17]): 22 mm; zone of inhibition at 50 µg/mL (Candida albicans [18]): 23.5 mm
COc1cccc2c1C(=O)c1c(O)c3c(c(O)c1C2=O)C[C@@](O)(C(=O)CO)C[C@@H]3O[C@H]1C[C@H](N)[C@H](O)[C@H](C)O1 [DOXORUBICIN] |  |  |  |  |  |  |  |  |  |  |  |  |  |  |  |  | viability at 5 µM (MCF7 [19]): 43.1%; viability at 5 µM (MDA-MB-231 [20]): 22.9%
